For data set [1], the target named is T1, CHO cell sialidase (Cricetulus griseus, UniProt Q64393).
T1 construct: The sialidase described was purified from the cell culture fluid of a single production cell line (CHO 14.16); endogenous in cells; host or cells: CHO 14.16 cells (purified from the cell culture fluid)
Briefly: Inhibition of CHO cell sialidase (competitive inhibitor study). In kind it is biochemical, Chinese hamster.

The target of data set [2] is cytosolic sialidase from rat muscle. The note with it: cytosol, previously reported data, unit from footnote c; cited from earlier work.
Data set [3] has as its system lysosomal sialidase (fibroblasts). The note with it: cited from earlier work.
The test system of data set [4] is plasma membrane sialidase (adenovirus transformed kidney cells). The conditions noted are these: cited from earlier work.
The target of data set [5] is T1, CHO cell sialidase. Briefly: Sialidase kinetic constants with soluble sialylglycoconjugate substrates. In kind it is biochemical, Chinese hamster. The conditions noted are these: for substrate cleavage in words: purified enzyme. The procedure: Fluorescent sialidase assays: Standard assay conditions for monitoring the enzyme activity during purification using the fluorescent substrate analog are: 1.3 mM 4-MUNeu5Ac, 50 mM phosphate buffer, pH 6.8, 0.3 mg bovine serum albumin and varying amounts of enzyme in a total volume of 30 μl. After addition of enzyme the samples are incubated at 37° C. in a shaking water bath for 5 minutes. The reaction is terminated and the fluorescence of the liberated umbelliferone is enhanced by the addition of 2 ml of 80 mM glycine-carbonate buffer, pH 9.7. Quantification of the product is made by measuring the fluorescence of the samples with excitation at 365 nm and emission at 450 nm using a standard of 4-methyl umbelliferone. A unit of enzyme activity is defined as a μmol/min of sialic acid liberated.
(§1) Sialidase assays with natural substrates: When natural substrates are tested with the purified enzyme, the amount of released sialic acid is measured using the thiobarbituric acid assay as modified by Uchida [Uchida et al. J. Biochem., 82:1425 (1977)] using sialic acid as standard. The amount of sialic acid in control samples, which include a complete assay mixture incubated without added enzyme is subtracted from each determination. All samples are cleared by centrifugation (1,000×G, 10 min) prior to determining the absorbance at 540 nm.
Enzyme kinetic parameters: Assay conditions (time and added enzyme) are modified for each substrate so that initial reaction rates are measured. Kinetic parameters are obtained from double reciprocal plots of the substrate saturation curves [Segel, I. H. John Wiley, New York, Enzyme Kinetics, 18 (1975)].
Substrate specificity: Several classes of sialyl glycoconjugates were tested as substrates, TABLE II. […] Transferrin is isolated from human serum and contains only 2,6 linked sialic acid residues [Baenziger, J. U. The Plasma Proteins 2nd Ed. (Putnam, F. W., ed.) 272-398, Academic Press, New York (1984)].

In data set [6] the target is T1, CHO cell sialidase. As to the kind of experiment: Sialidase activity toward gangliosides and colominic acid (thiobarbiturate assay). It is filed as biochemical, Chinese hamster. Details: key to Relative Activity: NR: no reaction products detected. The conditions noted are these: for Relative Activity: substrate 4 mM, initial rate, pH 6.0, cholic acid (0.05%) with lipid substrates, α-2,3 sialyllactose = 100; for ganglioside hydrolysis in words: cholic acid as solubilizing agent. The procedure: as §1
Some gangliosides are degraded by the sialidase (TABLE III), although these substrates require the presence of cholic acid as a solubilizing agent in the assay for optimal activity.

T1 sequence (Q64393 whole entry): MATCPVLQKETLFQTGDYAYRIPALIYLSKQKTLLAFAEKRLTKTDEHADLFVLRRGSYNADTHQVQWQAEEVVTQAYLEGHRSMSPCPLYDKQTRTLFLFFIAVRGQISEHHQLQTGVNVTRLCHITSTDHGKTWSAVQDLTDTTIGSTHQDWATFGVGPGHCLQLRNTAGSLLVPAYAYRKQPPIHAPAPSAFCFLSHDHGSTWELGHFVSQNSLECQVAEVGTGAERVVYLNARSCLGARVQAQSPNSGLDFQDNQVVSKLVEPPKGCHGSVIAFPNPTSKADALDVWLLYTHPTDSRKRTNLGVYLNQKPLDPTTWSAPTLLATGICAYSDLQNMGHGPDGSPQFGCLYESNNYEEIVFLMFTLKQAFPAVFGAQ

Take `CC(=O)N[C@H]1[C@H]([C@H](O)[C@H](O)CSc2ccc(N=[N+]=[N-])cc2[N+](=O)[O-])OC(C(=O)O)=C[C@@H]1O` [9-PANP-Neu5Ac2en, 9-S-(4'-azido-2'-nitro-phenyl)-5-acetamido-2,6 anhydro-9-thio-2,5,9-trideoxy-D-glycero-D-galacto-non-2-enonic acid]: the inhibition in words result at CHO cell sialidase [1] was “weakly inhibited”.
Turning to `CC(=O)N[C@H]1[C@H]([C@H](O)[C@H](O)CN=[N+]=[N-])OC(C(=O)O)=C[C@@H]1O` [9-azido-Neu5Ac2en, 5-acetamido-2,6-anhydro-9-azido-3,5,9-trideoxy-D-glycero-D-galacto-non-2-enonic acid], the inhibition in words result was “moderately inhibited” at CHO cell sialidase [1], “strongly inhibited” in data set [3] and “strongly inhibited” in data set [4] (plasma membrane sialidase). Also, the Ki in data set [2] is 50 µM; in data set [4] (adenovirus transformed kidney cells, plasma membrane, previously reported data, unit from footnote c), 10 µM.
On to `CC(=O)N[C@H]1[C@H]([C@H](O)[C@H](O)CO)O[C@@](O[C@H](CO)[C@@H](O)[C@@H]2OC(O)(C(=O)O)C[C@H](O)[C@H]2NC(C)=O)(C(=O)O)C[C@@H]1O` (some centres unmarked) [Sialic acid dimer], for which, on CHO cell sialidase [5], the “substrate cleavage in words” value is given as “substrates for the enzyme”.
The same measure, in the same setting: the value for `CC(=O)N[C@H]1[C@H]([C@H](O)[C@H](O)CO)O[C@@](O[C@H]2[C@@H](O)[C@@H](CO)O[C@@H](O[C@H]3[C@H](O)[C@@H](O)C(O)O[C@@H]3CO)[C@@H]2O)(C(=O)O)C[C@@H]1O` (some centres unmarked) [sialyl lactose] was “readily cleaved”.
For the compound `CC(=O)N[C@H]1[C@H]([C@H](O)[C@H](O)CO)O[C@@](O[C@H]2[C@@H](O)[C@@H](CO)O[C@@H](O[C@H]3[C@H](O)[C@@H](O)C(O)O[C@@H]3CO)[C@@H]2O)(C(=O)O)C[C@@H]1O` (stereo partly drawn) [α-2,3 Sialyllactose], on CHO cell sialidase [6], the “Relative Activity” value was 100%.
Regarding Colominic Acid, the “substrate cleavage in words” value at CHO cell sialidase [5] is reported as “hydrolyzed but at substantially reduced rates”. Also, at CHO cell sialidase [6], the “Relative Activity” value was found to be 4%.
In the case of II^3 (NeuAc)2 -GgOse4 Cer [GD1b], on CHO cell sialidase [6], the “ganglioside hydrolysis in words” value is given as “not substrates” and the “Relative Activity” value was “NR”.
Take II^3 NeuAc-GgOse3 Cer [GM2]: on CHO cell sialidase [6], the “ganglioside hydrolysis in words” value is given as “not substrates” and the “Relative Activity” value was “NR”.
The like results for II^3 NeuAc-GgOse4 Cer [GM1] were, in that order, “not substrates” and “NR”.
For the compound II^3 NeuAc-LacCer [GM3], on CHO cell sialidase [6], the “ganglioside hydrolysis in words” value was “hydrolyzed at comparable rates” and the “Relative Activity” value was 29%.
In the case of “IV^3 NeuAc, II^3 (NeuAc)2 -GgOse4 Cer [GT1b]”, at CHO cell sialidase [6], the “ganglioside hydrolysis in words” value was “hydrolyzed at comparable rates” and the “Relative Activity” value turned out to be 23%.
The like results for “IV^3 NeuAc, II^3 NeuAc-GgOse4 Cer [GD1a]” were, in that order, “hydrolyzed at comparable rates” and 21%.
Turning to “Transferrin: isolated from human serum and contains only 2,6 linked sialic acid residues”, the Vmax with CHO cell sialidase [5] (apparent, standard assay conditions, average of duplicates, relative error about 10%) was determined as 2 µmol/min/mg. The “substrate cleavage in words” value in the data set with CHO cell sialidase [5] is given as “cleaved much more slowly than that bound to recombinant human deoxyribonuclease I”. In addition, in the data set with CHO cell sialidase [5] (transferrin versus deoxyribonuclease I), the “Km values compared (in words)” value is recorded as “nearly identical”.

These data come from patent US5928915A, “CHO cell sialidase by recombinant DNA technology” (Genentech, Inc., priority 1997, dated 1999).
